Assay results taken from US20070270392A1, “Use of a Cyclopentenone Prostaglandin for Delaying the Onset and/or Preventing the Continuation of Labour” (Imperial College Innovations Limited, priority 2003, published 2007).

Key:
Assay type in all cases: cell-based, human
NF-κB = assay: Western immunoblot of NF-κB activation (p65, p50, IκB) in amnion cells; conditions: L−
Procedure: Western immunoblots of nuclear or cytosolic protein extracts from (A) myometrial cells, (B) L− amnion cells, and (C) L+amnion cells treated with 15dPGJ2 or vehicle for 2 h+/−IL-1, stimulation (15 min). Blots probed with antibodies against p65, p50 or IκBα.
(§1) Placentae were obtained from patients at term either at elective Caesarean section prior to labour (L−) or following spontaneous labour onset and vaginal delivery (L+). Amnion cells were prepared as described in Bennett et al., (1989). Briefly, the amnion was separated from the placenta, washed 3× in PBS, cut into strips, and incubated in 0.51 mM EDTA in PBS for 15 min. The strips were washed in PBS 2× and digested with 2.5 mg/ml dispase in serum-free DMEM for 35 min at 37° C. The amnion was then shaken vigorously in DMEM, 10% FCS to dissociate the cells, the remaining strips discarded, and the cell suspension pelleted at 175 g for 10 min and cultured in DMEM, 10% FCS (Sigma), 1% L-glutamine, 1% penicillin-streptomycin.
Nuclear and cytosolic protein extracts were obtained from cultured amnion cells as described by Schreiber et al (1989). For nuclear/cytosolic fractionation, confluent cell monolayers were scraped and lysed using a buffer containing 10 mM HEPES, 10 mM KCl, 0.1 mM EDTA, 0.1 mM EGTA, 2 mM DTT, 1% (v/v) NP-40 and complete protease inhibitor tablets (CPIs, Roche), diluted to manufacturer's instructions. Cell lysates were incubated on ice for 10 min and NP-40 added to a final concentration of 1% (v/v). Lysates were vortexed for 10 secs and centrifuged for 30 secs at 4° C., 12000 g. The supernatants were retained as the cytosolic protein extracts. The pellets were resuspended in buffer containing 10 mM HEPES, 10 mM KCl, 0.1 mM EDTA, 0.1 mM EGTA, 2 mM DTT, 400 mM NaCl, 1% NP-40 (v/v) and CPIs. Samples were shaken vigorously for 15 min in an ice bath. The nuclear protein extracts were obtained in the supernatant following a 5 min centrifugation at 4° C., 12000 g.
(§2) Protein samples (20-70 μg) were mixed with Laemmli sample buffer (1:1) containing β-mercaptoethanol (5%), and boiled for 5 min. Proteins were then separated by SDS-PAGE (12-14% gels) and transferred onto PVDF membrane (Amersham Pharmacia Biotech). The membranes were blocked overnight in 5% non-fat milk prepared in PBS-T buffer, at 4° C. The blots were incubated with the primary antibody in 1% non-fat milk in PBS-T buffer for 1 h, and washed three times (10 min each) in PBS-T with vigorous shaking. The blots were then incubated with HRP-conjugated secondary antibody (diluted 1:2000 in 1% non-fat milk in PBS-T buffer) for 1 h and washed three times (10 min each) in PBS-T. Signal detection was achieved using enhanced chemi-luminescence (ECL plus system, Amersham Pharmacia Biotech) according to manufacturer's instructions. […]

COX-2 = assay: IL-1β-induced COX-2 expression in L− and L+ amnion cells
Procedure: as §1
as §2, with “The blots were incubated with the primary antibody in 1% non-fat milk in PBS-T buffer for 1 h, and washed three times (10 min each) in PBS-T with vigorous shaking.” left out

PPAR-γ = assay: Western immunoblot of PPAR-γ protein expression in myometrial and amnion cells
Procedure: Western immunoblots of (A) nuclear and cytosolic protein extracts from myometrial and amnion cells with or without 15 min IL-1β stimulation, and (B) nuclear extracts of myometrial cells treated with 15d-PGJ2+/−IL-1b. Probing with antibody to PPARγ.
(§3) Protein samples (20-70 μg) were mixed with Laemmli sample buffer (1:1) containing β-mercaptoethanol (5%), and boiled for 5 min. Proteins were then separated by SDS-PAGE (12-14% gels) and transferred onto PVDF membrane (Amersham Pharmacia Biotech). The membranes were blocked overnight in 5% non-fat milk prepared in PBS-T buffer, at 4° C. The blots were incubated with the primary antibody in 1% non-fat milk in PBS-T buffer for 1 h, and washed three times (10 min each) in PBS-T with vigorous shaking. The blots were then incubated with HRP-conjugated secondary antibody (diluted 1:2000 in 1% non-fat milk in PBS-T buffer) for 1 h and washed three times (10 min each) in PBS-T. Signal detection was achieved using enhanced chemi-luminescence (ECL plus system, Amersham Pharmacia Biotech) according to manufacturer's instructions.
(§4) 30-50 μg protein extracts were subjected to SDS-PAGE and Western immuno-blotting. Secondary antibodies were IgG-HRP and ECL Plus detection kit (Amersham Pharmacia Biotech, Amersham Place, Little Chalfont, Bucks, HP7 9NA) was used for visualisation.

IKKα or IKKβ = assay: Western immunoblot of IKK protein expression in myometrial cells
Procedure: Western immunoblots of cytosolic extracts from myometrial cells (A) treated with 15dPGJ2 for 2 h+/−IL1b for 15 min; probed for IKK, and (B) treated with […] 15dPGJ2, […] MG132 or vehicle for 2 h, +/−IL-1β for 15 min; probed for IκBα.
as §3, §4

CCCCCC=CC=C1C(=O)C=C[C@@H]1CC=CCCCC(=O)O [15d-PGJ2, 15-deoxy-Δ^12,14prostaglandin J2]
IL-1β-induced IκBα and IκBβ degradation (NF-κB): inhibition
IL-1β-induced p50 phosphorylation (NF-κB): inhibited
IL-1β-induced p65 nuclear translocation (NF-κB): inhibited
IL-1β-induced COX-2 expression (COX-2): inhibited
PPAR-γ protein expression (PPAR-γ): not affected
IKKα or IKKβ protein expression (IKKα or IKKβ): had no effect
